Values joined by “and” are separate entries in the source; they are usually repeats but may differ in a detail not shown here. Identical values can stand only once.
How the values were obtained:
[1] = tested on: cap-dependent and cap-independent (IRES) protein synthesis; experiment: Bicistronic protein synthesis reporter in HEK293 cells; format: cell-based, human; conditions: for Cap translation, Average / IRES, Average: HEK293, n=3; for Cap translation, Average: cap-dependent luciferase reporter; for IRES, Average: cap-independent luciferase driven by viral IRES
Method: Supplementary Fig. 10 Determination of the effects of compound 4 on protein synthesis and viability. a HEK293 cells were transfected with protein synthesis reporter expressing bicistonic mRNA with a cap-dependent luciferase reporter and a cap-independent luciferase driven by a viral IRES. Cells were treated with 1 or 10 µM […]
with compound 4 for 24 hr. […]
Source data is located in the Supplementary Source Data file

[2] = biological target: eIF4E:eIF4G interaction (Homo sapiens, UniProt P06730); experiment: Electro-chemiluminescent binding assay, eIF4E:eIF4G, SW620 cell lysates; format: biochemical; set-up: endogenous in cells; host or cells: SW620 cells (lysates); conditions: for eIF4G:eIF4E luminescence signal normalised to DMSO control: SW620, Expt 1, Expt 2, Fig. 4d
eIF4E:eIF4G interaction, sequence (P06730 2-217 limits assumed): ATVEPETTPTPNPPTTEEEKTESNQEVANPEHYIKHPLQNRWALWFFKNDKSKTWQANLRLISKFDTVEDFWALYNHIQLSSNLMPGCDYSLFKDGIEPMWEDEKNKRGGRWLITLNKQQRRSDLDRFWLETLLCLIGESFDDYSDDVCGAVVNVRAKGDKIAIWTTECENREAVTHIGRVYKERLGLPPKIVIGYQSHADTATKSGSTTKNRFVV
Method: (§1) This assay uses plates with carbon electrodes and electro-chemiluminescent labels (SULFO-TAGs) that are conjugated to detection antibodies. When an electric current is applied to the plate electrodes the SULFO-TAG labels will emit light that is measured to quantify analytes in the sample. […] The plates were washed with 3 ×150 µl/well MSD wash buffer (cat#R61AA-1; 0.2% Tween-20 in PBS), then blocked with 150 µl/well block buffer (MSD, cat# R93AA) for 1 h. […] The incubated plates were washed 4x in 150 µl in MSD wash buffer and were re-blocked by the addition of 25 μl of blocking buffer containing a 1:500 dilution of the secondary antibody and incubated for 1 hr at RT with rotational shaking. […] Plates were then washed again 4x in 150 µl in MSD wash buffer and 25 μl of a 1:50 dilution of Goat anti-rabbit Sulfo-Tag (MSD, Cat# R32AB-1) in MSD blocking buffer was added and the plates incubated for 1 h at RT with rotational shaking. After a final wash step, 150 μl Read Buffer T4X (MSD, Cat# R92-TC2) was added and the plate read using the MSD QuickPlex SQ 120 plate reader.

[3] = biological target: T1, eIF4G binding to eIF4E (Homo sapiens, UniProt P06730); experiment: Co-immunoprecipitation with eIF4E antibody, immunoblot for eIF4G, SW620 lysates; format: biochemical; conditions: 1–100 µM, 30 min
T1 construct: endogenous in cells; host or cells: SW620 cells (lysates)
T1 sequence (P06730 2-217 limits assumed): as above
Method: Cells were harvested by trypsinisation and washed with PBS before lysis in MSD lysis buffer (150 mM NaCl, 20 mM Tris pH 7.5, 1 mM EDTA, 1 mM EGTA, 1% Triton X-100) containing protease inhibitors (Roche, complete mini tablet, cat# 11836153001) and phosphatase inhibitors (50 mM NaF and 100 mM Na3VO4). Lysate was placed on ice for 30 min and then cleared in a microfuge at 17,000 x g for 10 min at 4 °C. The protein concentration of the cleared lysate was determined by BCA assay (Pierce) and adjusted to 4 mg/ml with lysis buffer. […] 100 μl of lysate and 100 μl of beads were then incubated with shaking overnight at 4 °C. Samples were then washed 3x with 1 ml PBS, resuspended in 100 μl PBS and boiled for 10 min with 1x SDS-PAGE sample buffer containing 10 μl 1 mM DTT.
After seeding overnight in 6 well plates (Corning, cat#353046), cells were treated with compounds for the indicated times and concentration, harvested and the cell pellet lysed on ice in cell lysis buffer (Cell Signaling, cat#9803), supplemented with 1x Halt^TM protease inhibitor cocktail (Fisher Scientific, cat#78429) and cOmplete^TM protease inhibitor cocktail (Sigma-Aldrich, cat#11836153001) for 1 hr. Protein was quantified using BCA protein kit (Fisher Scientific, cat#23225). […] Quantitative densitometry analysis of protein bands was performed using Image J v1.53 software.

[4] = tested on: H1299 cells; experiment: CellTiter-Blue cell viability, H1299; format: cell-based, human; conditions: for Cell viability by cell titre blue assay, Average: H1299, 4 days, n=3
Method: Cell viability was measured by CellTiter-Blue® Cell Viability Assay. Cells were seeded in 96 well plates (Corning, cat#353072) and left overnight. Compounds were added at a range of concentrations and plates incubated at 37 °C for 96 hr. Cell titre blue reagent (Promega, Hampshire, UK, cat# G8081) was added (5 μl/well) and incubated for a further 2 h at 37 °C. Fluorescence (579Ex/584Em) was measured using a PHERAstar plate reader.

[5] = tested on: MCL1 protein expression; experiment: Immunoblot of MCL1 in eIF4E-dTAG clones and rescue models; format: cell-based, human; conditions: for Quantification of MCL1 immunoblot signals using Image J, Average: Cont = 100; for Quantification of MCL1 (6hr) immunoblot signal using Image J, Average: 0.5 μM, control = 100
Method: One sample t and Wilcoxon tests (two-sided), using 100% as hypothetical control value, were performed and compared with the control in each cell line. b, c Real-time cell growth measurements monitored every 4 h over a 6-day period. Cell confluency (%) was calculated using Incucyte Zoom software and (mean ± SEM n = 3 biological replicates). Ordinary one-way ANOVA with Tukey multiple comparisons test compared treatment with the control in each cell line. […] Vinculin was used as loading control. H1299 (PAR) cell lines were treated with 1 μM dTAG^V-1 only as qualitative control. Vinculin was used as loading control. […] Significant p-values (< 0.05) are shown on the plots and the source data is located in the Source Data file.
After seeding overnight in 6 well plates (Corning, cat#353046), cells were treated with compounds for the indicated times and concentration, harvested and the cell pellet lysed on ice in cell lysis buffer (Cell Signaling, cat#9803), supplemented with 1x Halt^TM protease inhibitor cocktail (Fisher Scientific, cat#78429) and cOmplete^TM protease inhibitor cocktail (Sigma-Aldrich, cat#11836153001) for 1 hr. Protein was quantified using BCA protein kit (Fisher Scientific, cat#23225). Western blot was performed using NuPAGE^TM 4–12% Bis-Tris gels (Fisher Scientific, cat#NP0336BOX) and transferred using the Invitrogen iBLOT^TM gel transfer device system (Fisher Scientific, Cat#IB21001). […] All primary antibodies were diluted (1:1000) in 5% BSA (Sigma-Aldrich, cat#A7906) in 1x TBS and 0.1% Tween 20 (Sigma-Aldrich, cat#P1379), except for vinculin (1:2000) that was diluted in casein blocker (Sigma-Aldrich, cat#1610782). This was followed by incubation with the secondary HRP-conjugated antibodies (anti-mouse HRP, Bio-rad, Watford, UK, cat#1705047; anti-rabbit HRP, Sigma-Aldrich, cat#NA934) in casein for 1 h at RT. ECL HRP substrate (SuperSignalTM West Pico, Fisher Scientific, cat#34578) was then added to detect protein targets by chemiluminescence and images acquired using the ChemiDocTM system (Bio-Rad). Quantitative densitometry analysis of protein bands was performed using Image J v1.53 software.

[6] = biological target: eIF4E–4E-BP1 interaction (Homo sapiens, UniProt P06730); experiment: Electro-chemiluminescent binding assay, eIF4E:4E-BP1, HeLa cell lysates; format: biochemical; set-up: endogenous in cells; host or cells: HeLa cell lysates; conditions: for EC50: read-out: Inhibition of PPI in HeLa cells: eIF4E–4E-BP1 interaction, HeLa cell lysates, values in parentheses
eIF4E–4E-BP1 interaction, sequence (P06730 2-217 limits assumed): as above
Method: as §1

SMILES: CC[C@H](O[C@H](C)CO)c1ccc(-c2ccccc2F)cc1NCCO [Compound 4]
- Cap translation, Average ([1]; 1μM): 87.46
- IRES, Average ([1]; 1μM): 89.67
- Cap translation, Average ([1]; 10μM): 74.14
- IRES, Average ([1]; 10μM): 83.90
- inhibitory activity in dual reporter assay ([1]; HEK293 cells, 1 or 10 µM, 24 hr): lacked inhibitory activity
- eIF4G:eIF4E luminescence signal normalised to DMSO control ([2]; 0.4 μM): 89% and 92.6%
- eIF4G:eIF4E luminescence signal normalised to DMSO control ([2]; 4 μM): 47.4% and 46.9%
- eIF4G:eIF4E luminescence signal normalised to DMSO control ([2]; 12 μM): 33.5% and 31.6%
- eIF4G:eIF4E luminescence signal normalised to DMSO control ([2]; 40 μM): 20.4% and 20.8%
- eIF4G:eIF4E SW620, luminescence ratio normalised to DMSO control ([2]; SW620 lysates, 100 µM, 30 min, single experiments Expt 1, Expt 2): 23% and 19%
- EC50 ([2]; read-out: EC50, eIF4G binding to eIF4E, SW620 cell lysates, 30 min): 2.6 µM
- effect on eIF4G binding to eIF4E (co-immunoprecipitation) [3]: disrupted eIF4G binding to eIF4E
- antiproliferative activity ([4]; H1299, 96 hr): lacked on-target antiproliferative activity
- Cell viability by cell titre blue assay, Average ([4]; 0.62 uM): 93.752
- Cell viability by cell titre blue assay, Average ([4]; 1.85 uM): 89.518
- Cell viability by cell titre blue assay, Average ([4]; 5.56 uM): 87.397
- Cell viability by cell titre blue assay, Average ([4]; 16.67 uM): 77.938
- Cell viability by cell titre blue assay, Average ([4]; 50 uM): 33.702
- MCL1 expression on co-treatment ([5]; 25 μM with dTAG^V-1, C3-1 or L85R rescue line): no additional loss of proliferation or MCL1 expression
- effect on MCL1 biomarker ([5]; 25 μM, absence of dTAG^V-1, C3-1, W73F and L85R models): no effect on the MCL1 biomarker or proliferation
- 4E-BP1:eIF4E HeLa, luminescence ratio normalised to DMSO control ([6]; HeLa lysates, 100 µM, 30 min, single experiments Expt 1, Expt 2): 88% and 92%
- EC50 [6]: > 100 µM

SMILES: CC[C@@H](O[C@H](C)CO)c1ccc(-c2ccccc2F)cc1NCCO [Compound 5]
- effect on eIF4G binding to eIF4E (co-immunoprecipitation) [3]: limited effect
- Cell viability by cell titre blue assay, Average ([4]; 0.62 uM): 92.413
- Cell viability by cell titre blue assay, Average ([4]; 1.85 uM): 89.367
- Cell viability by cell titre blue assay, Average ([4]; 5.56 uM): 90.001
- Cell viability by cell titre blue assay, Average ([4]; 16.67 uM): 80.933
- Cell viability by cell titre blue assay, Average ([4]; 50 uM): 48.944
- EC50 [6]: > 100 µM

SMILES: CC[C@H](C(=O)N1CCCC[C@H]1C(=O)O[C@H](CCc1ccc(OC)c(OC)c1)c1ccccc1OCC(=O)NCCCCCCC(=O)N[C@H](C(=O)N1C[C@H](O)C[C@H]1C(=O)N[C@@H](C)c1ccc(-c2scnc2C)cc1)C(C)(C)C)c1cc(OC)c(OC)c(OC)c1 [dTAG^V-1]
- Quantification of MCL1 immunoblot signals using Image J, Average ([5]; C3-1 + WT eIF4E, 0.5 uM, n=3): 116.17
- Quantification of MCL1 immunoblot signals using Image J, Average ([5]; C3-1 + WT eIF4E, 1 uM, n=3): 110.20
- Quantification of MCL1 (6hr) immunoblot signal using Image J, Average ([5]; C3-1, n=3): 44
- Quantification of MCL1 immunoblot signals using Image J, Average ([5]; C3-1, 0.5 uM, n=3): 39.67
- Quantification of MCL1 immunoblot signals using Image J, Average ([5]; C3-1, 1 uM, n=3): 38.77
- Quantification of MCL1 immunoblot signals using Image J, Average ([5]; L85R, 0.5 uM, n=3): 69.30
- Quantification of MCL1 immunoblot signals using Image J, Average ([5]; L85R, 1 uM, n=3): 57.73
- Quantification of MCL1 immunoblot signals using Image J, Average ([5]; L134R, 0.5 uM, n=3): 63.30
- Quantification of MCL1 immunoblot signals using Image J, Average ([5]; L134R, 1 uM, n=3): 50.60
- Quantification of MCL1 (6hr) immunoblot signal using Image J, Average ([5]; S209A rescue, n=3): 117
- Quantification of MCL1 immunoblot signals using Image J, Average ([5]; S209A, 0.5 uM, n=3): 104.13
- Quantification of MCL1 immunoblot signals using Image J, Average ([5]; S209A, 1 uM, n=3): 110.17
- Quantification of MCL1 (6hr) immunoblot signal using Image J, Average ([5]; W56A rescue, n=3): 49
- Quantification of MCL1 immunoblot signals using Image J, Average ([5]; W56A, 0.5 uM, two experiments): 55.95
- Quantification of MCL1 immunoblot signals using Image J, Average ([5]; W56A, 1 uM, n=3): 64.70
- Quantification of MCL1 immunoblot signals using Image J, Average ([5]; W73F/L85R, 0.5 uM, n=3): 57.83
- Quantification of MCL1 immunoblot signals using Image J, Average ([5]; W73F/L85R, 1 uM, n=3): 56.77
- Quantification of MCL1 immunoblot signals using Image J, Average ([5]; W73F, 0.5 uM, n=3): 92.60
- Quantification of MCL1 immunoblot signals using Image J, Average ([5]; W73F, 1 uM, n=3): 99.57
- Quantification of MCL1 (6hr) immunoblot signal using Image J, Average ([5]; WT rescue, n=3): 99
- MCL1 protein after treatment ([5]; eIF4E-dTAG clones): decrease in MCL1 protein
